One assay deals with T1, ErbB2 (D769H) (Homo sapiens, UniProt P04626, D769H).
T1 construct: purchased Reaction Biology Corporation
The experiment in a line: ErbB2 mutant inhibition assay (33P-ATP radiometric kinase assay, Reaction Biology). Format: biochemical. The settings on record: ATP 10 μM, 20 min preincubation, 2 h reaction; read-out: Compound IC50 ErbB2 (D769H). The method, then:
(§1) The reagents and materials used in the assay, as well as the testing procedure, were provided and carried out by Reaction Biology Corporation. The specific steps were as follows: • 1. […] Conditions for the enzyme reaction assay: The test compounds were incubated for 20 minutes, ATP concentration was set at 10 μM, and the total duration of the enzyme reaction was 2 hours. • 3. Experimental steps for the enzyme reaction
(§2) The enzyme reaction buffer was 20 mM HEPES at a pH of 7.5, 10 mM MgCl2, 2 mM MnCl2, 1 mM EGTA, 0.01% Brij35, 0.02 mg/mL BSA, 0.1 mM Na3VO4, 2 mM DTT, and 1% DMSO.
(§3) Kinase activity %=(Remaining kinase activity of test compound samples/Kinase activity of solvent control samples (DMSO))*100%
(§4) The IC50 of the compound was calculated by fitting the kinase activity % at different compound concentrations.

For the next assay, the target named is T2, ErbB2 (D769Y) (Homo sapiens, UniProt P04626, D769Y).
T2 construct: purchased Reaction Biology Corporation
T2 sequence (P04626 23-1255 D769Y): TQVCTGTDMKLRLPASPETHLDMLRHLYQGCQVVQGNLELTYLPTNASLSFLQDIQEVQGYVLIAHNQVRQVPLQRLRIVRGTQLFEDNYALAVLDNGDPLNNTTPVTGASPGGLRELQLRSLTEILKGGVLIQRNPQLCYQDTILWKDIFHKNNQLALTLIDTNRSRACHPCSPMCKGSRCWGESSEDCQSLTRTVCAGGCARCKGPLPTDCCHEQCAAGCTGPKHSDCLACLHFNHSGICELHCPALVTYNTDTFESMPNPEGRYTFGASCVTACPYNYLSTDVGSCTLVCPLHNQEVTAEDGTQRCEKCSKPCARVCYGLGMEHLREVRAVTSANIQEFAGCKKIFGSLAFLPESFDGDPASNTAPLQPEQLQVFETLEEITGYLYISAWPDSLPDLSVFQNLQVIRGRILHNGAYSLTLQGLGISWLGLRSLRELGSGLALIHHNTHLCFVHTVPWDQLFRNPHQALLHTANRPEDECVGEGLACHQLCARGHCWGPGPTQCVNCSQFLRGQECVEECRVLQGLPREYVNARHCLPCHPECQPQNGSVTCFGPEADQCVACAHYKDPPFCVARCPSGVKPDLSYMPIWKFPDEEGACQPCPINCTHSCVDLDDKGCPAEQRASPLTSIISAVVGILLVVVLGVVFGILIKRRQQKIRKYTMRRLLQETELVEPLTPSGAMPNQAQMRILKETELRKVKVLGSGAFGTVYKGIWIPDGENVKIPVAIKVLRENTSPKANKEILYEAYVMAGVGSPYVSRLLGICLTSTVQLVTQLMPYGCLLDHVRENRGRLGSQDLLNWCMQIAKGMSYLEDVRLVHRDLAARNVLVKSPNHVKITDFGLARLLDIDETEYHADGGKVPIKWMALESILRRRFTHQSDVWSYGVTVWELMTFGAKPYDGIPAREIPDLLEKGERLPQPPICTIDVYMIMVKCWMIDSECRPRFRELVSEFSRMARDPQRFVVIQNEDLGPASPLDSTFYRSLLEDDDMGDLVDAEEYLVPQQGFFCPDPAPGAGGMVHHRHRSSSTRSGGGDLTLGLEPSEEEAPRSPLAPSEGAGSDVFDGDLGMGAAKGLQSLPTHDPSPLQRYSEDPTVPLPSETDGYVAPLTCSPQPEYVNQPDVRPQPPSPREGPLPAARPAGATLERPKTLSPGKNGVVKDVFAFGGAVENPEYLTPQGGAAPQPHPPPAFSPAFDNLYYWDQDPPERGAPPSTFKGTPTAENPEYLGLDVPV
The assay is described as above. The class given is biochemical. To be noted: ATP 10 μM, 20 min preincubation, 2 h reaction; read-out: Compound IC50 ErbB2 (D769Y). The method, then: as §1, §2, §3, §4

The next assay deals with T3, ErbB2 (R896C) (Homo sapiens, UniProt P04626, R896C).
T3 construct: purchased Reaction Biology Corporation
T3 sequence (P04626 23-1255 R896C): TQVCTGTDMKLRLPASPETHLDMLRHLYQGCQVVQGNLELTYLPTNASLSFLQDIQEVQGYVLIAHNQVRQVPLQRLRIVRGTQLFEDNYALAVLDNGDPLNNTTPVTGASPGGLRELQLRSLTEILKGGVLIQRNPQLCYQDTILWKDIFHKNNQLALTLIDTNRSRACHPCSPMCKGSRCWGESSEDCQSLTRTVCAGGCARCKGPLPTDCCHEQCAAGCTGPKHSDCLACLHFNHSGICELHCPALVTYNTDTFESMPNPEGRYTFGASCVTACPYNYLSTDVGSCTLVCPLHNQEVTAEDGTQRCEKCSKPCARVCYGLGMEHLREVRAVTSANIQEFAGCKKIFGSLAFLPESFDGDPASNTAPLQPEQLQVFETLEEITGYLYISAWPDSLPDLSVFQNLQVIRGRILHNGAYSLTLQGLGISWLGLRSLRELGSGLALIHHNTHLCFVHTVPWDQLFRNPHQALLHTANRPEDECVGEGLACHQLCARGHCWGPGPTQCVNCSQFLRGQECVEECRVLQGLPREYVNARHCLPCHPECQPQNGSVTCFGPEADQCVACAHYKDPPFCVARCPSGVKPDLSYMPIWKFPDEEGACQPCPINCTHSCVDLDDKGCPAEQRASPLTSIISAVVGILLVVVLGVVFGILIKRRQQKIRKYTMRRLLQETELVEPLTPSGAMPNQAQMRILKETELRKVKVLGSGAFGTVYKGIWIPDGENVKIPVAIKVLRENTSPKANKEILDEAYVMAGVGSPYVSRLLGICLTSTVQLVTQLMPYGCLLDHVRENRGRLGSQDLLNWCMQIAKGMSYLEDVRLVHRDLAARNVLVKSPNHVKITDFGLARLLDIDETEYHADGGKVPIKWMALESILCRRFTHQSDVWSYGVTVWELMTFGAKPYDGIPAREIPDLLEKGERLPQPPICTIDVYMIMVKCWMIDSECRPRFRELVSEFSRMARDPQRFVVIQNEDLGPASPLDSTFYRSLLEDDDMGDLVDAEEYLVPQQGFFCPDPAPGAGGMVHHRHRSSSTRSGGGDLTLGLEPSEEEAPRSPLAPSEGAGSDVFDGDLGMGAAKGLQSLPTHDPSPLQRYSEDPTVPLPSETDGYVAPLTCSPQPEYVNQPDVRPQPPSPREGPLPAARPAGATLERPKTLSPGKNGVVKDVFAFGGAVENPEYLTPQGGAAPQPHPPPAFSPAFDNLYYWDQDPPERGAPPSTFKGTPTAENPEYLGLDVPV
The assay is described as above. Format: biochemical. The settings on record: ATP 10 μM, 20 min preincubation, 2 h reaction; read-out: Compound IC50 ErbB2 (R896C). As to the method: as §1, §2, §3, §4

For the next assay, the target named is T4, ErbB2 (V777L) (Homo sapiens, UniProt P04626, V777L).
T4 construct: purchased Reaction Biology Corporation
T4 sequence (P04626 23-1255 V777L): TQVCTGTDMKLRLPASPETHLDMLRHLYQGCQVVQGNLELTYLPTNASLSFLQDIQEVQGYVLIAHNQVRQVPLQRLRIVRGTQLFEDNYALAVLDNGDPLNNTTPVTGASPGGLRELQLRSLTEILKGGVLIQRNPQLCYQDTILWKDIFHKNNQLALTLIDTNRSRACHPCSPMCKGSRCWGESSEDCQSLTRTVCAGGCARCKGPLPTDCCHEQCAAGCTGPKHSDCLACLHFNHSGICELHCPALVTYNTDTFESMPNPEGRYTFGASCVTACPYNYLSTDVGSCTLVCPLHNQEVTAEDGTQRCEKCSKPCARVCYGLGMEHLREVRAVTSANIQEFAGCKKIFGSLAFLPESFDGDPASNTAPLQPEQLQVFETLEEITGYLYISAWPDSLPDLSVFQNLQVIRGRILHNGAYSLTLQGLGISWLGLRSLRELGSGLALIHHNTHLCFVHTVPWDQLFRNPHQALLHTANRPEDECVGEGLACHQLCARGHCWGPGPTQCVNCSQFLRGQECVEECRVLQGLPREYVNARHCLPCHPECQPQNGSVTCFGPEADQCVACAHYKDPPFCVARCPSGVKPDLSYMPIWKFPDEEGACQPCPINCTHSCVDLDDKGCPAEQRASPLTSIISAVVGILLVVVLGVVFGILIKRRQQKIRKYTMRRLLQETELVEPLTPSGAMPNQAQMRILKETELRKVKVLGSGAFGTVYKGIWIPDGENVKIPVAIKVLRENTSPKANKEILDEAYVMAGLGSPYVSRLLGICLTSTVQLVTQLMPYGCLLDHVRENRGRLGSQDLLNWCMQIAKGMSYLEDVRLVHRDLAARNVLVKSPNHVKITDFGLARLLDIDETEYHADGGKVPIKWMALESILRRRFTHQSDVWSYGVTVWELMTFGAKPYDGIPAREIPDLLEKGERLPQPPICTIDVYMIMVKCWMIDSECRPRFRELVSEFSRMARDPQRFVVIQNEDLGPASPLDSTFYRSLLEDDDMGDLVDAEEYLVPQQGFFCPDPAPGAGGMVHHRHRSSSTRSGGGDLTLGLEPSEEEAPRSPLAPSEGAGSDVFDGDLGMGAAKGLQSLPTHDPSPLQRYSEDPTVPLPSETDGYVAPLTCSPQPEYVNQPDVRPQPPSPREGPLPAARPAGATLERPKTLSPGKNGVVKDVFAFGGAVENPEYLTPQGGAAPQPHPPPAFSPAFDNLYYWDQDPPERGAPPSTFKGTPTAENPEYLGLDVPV
Described as above. Format: biochemical. To be noted: ATP 10 μM, 20 min preincubation, 2 h reaction; read-out: Compound IC50 ErbB2 (V777L). As to the method: as §1, §2, §3, §4

Assay [1] has as its system Ba/F3 ErbB2 A775_G776insYVMA. As to the kind of experiment: ErbB2 mutant cell inhibition test (CTG, 72 hours). To be noted: Mus musculus, BaF3; Ba/F3 ErbB2 A775_G776insYVMA, 72 hours, CTG. The class given is cell-based. As to the method:
Cells were cultured, harvested during their logarithmic growth phase, and counted using a platelet counter. Cell viability was verified to be above 90% by trypan blue exclusion assay. After in vitro culture, 2×10^6 cells were obtained. […] A 10× drug solution was prepared, with a maximum concentration of 10 μM for the assay, and serially diluted 3-fold to nine concentrations. 10 μL of the drug solution was added to each well of the 96-well plate inoculated with the cells, and three duplicate wells were set for each drug concentration.

Assay [2] relates to Ba/F3 ErbB2 A775_G776insYVMA mouse xenograft. As to the kind of experiment: Efficacy testing in NPSG mouse xenograft model. The settings on record: 20 mg/kg; for Efficacy (in words): continuous administration for 13 days; for TGI (%): administration for 13 days. Format: in vivo. The text has this:
NPSG male mice (Shanghai Jihui Laboratory Animal Care Co., Ltd., Certificate: No. 20170012006783) were subcutaneously inoculated on the right shoulder with Ba/F3 ErbB2 A775_G776insYVMA cells (cultured in vitro, 9×10^7 cells obtained). When the average tumor volume reached 130 mm^3, the mice were randomly divided into six groups based on tumor volume and body weight, with 10 mice in each group, and administration was started immediately. After the initiation of administration, the mice's body weight and tumor volume were measured twice a week, with the administration continued until Day 13 of the experiment. On Day 14 of the experiment, post-administration sample collection was conducted for each group.
Note: Data are presented as mean±standard error; control group is the group without any compound administered.

Assay [3] concerns NCI-H1781 ErbB2 exon20ins (G766 > VC). As to the kind of experiment: ErbB2 mutant cell inhibition test (CTG, 72 hours). Format: cell-based, Human. The settings on record: Homo sapiens; NCI-H1781 ErbB2 exon20ins (G766 > VC), 72 hours, CTG. The method, then: Cells were cultured, harvested during their logarithmic growth phase, and counted using a platelet counter. Cell viability was verified to be above 90% by trypan blue exclusion assay. After in vitro culture, 2×10^6 cells were obtained. The cell suspension was aliquoted into a 96-well plate at 1×10^3 cells per well (90 μL/well), and incubated overnight under conditions of 37° C., 5% CO2, and 95% humidity. A 10× drug solution was prepared, with a maximum concentration of 10 μM for the assay, and serially diluted 3-fold to nine concentrations. 10 μL of the drug solution was added to each well of the 96-well plate inoculated with the cells, and three duplicate wells were set for each drug concentration. The 96-well plate, now containing the drug-treated cells, was cultured under conditions of 37° C., 5% CO2, and 95% humidity for an additional 72 hours before CTG analysis was performed.

T1 sequence (P04626 23-1255 D769H): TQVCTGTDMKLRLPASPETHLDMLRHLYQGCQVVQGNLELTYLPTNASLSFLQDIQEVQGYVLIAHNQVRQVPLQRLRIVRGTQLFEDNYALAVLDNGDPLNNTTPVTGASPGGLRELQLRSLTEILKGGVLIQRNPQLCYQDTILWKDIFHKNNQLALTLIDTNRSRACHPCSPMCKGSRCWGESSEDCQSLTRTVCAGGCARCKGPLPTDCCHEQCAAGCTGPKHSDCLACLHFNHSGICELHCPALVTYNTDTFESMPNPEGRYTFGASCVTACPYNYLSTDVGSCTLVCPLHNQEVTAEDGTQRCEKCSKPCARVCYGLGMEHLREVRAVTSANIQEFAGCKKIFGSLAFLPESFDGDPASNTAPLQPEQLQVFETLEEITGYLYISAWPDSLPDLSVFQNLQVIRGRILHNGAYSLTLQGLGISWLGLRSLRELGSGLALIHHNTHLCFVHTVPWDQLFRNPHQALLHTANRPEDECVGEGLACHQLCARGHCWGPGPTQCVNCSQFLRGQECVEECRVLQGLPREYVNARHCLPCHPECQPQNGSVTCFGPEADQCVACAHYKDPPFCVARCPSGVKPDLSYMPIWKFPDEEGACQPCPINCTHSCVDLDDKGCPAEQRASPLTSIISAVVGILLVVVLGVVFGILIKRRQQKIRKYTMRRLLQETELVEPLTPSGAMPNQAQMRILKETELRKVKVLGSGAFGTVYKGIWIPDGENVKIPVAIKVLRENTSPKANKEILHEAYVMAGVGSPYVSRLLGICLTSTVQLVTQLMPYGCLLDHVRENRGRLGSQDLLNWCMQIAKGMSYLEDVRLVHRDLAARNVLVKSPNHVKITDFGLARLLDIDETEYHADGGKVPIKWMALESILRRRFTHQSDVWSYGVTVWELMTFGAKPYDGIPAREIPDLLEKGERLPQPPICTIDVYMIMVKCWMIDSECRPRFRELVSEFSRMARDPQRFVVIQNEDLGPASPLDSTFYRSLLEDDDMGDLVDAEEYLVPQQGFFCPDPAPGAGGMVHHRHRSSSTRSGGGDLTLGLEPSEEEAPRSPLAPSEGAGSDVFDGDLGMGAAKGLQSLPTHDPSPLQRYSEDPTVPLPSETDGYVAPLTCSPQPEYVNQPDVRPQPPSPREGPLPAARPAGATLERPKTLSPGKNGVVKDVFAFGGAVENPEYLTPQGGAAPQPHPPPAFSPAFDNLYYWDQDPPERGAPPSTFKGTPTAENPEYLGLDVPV

The IC50 is the concentration that gives 50% inhibition. In the case of `Cc1cc(Nc2ncnc3ccc(NC(=O)/C=C/[C@H]4CCCN4C)cc23)ccc1Oc1ccc2nccn2n1`, the 50% inhibitory concentration (IC50) at ErbB2 (D769H) was 9.11 nM; at ErbB2 (D769Y), 38.9 nM; at ErbB2 (R896C) it was 3.7 nM; at ErbB2 (V777L), 14.9 nM.

As to `Cc1cc(Nc2ncnc3ccc(NC(=O)/C=C/[C@H]4CCCN4C)cc23)ccc1Oc1ccn2ccnc2c1`, the IC50 at ErbB2 (D769H) is below 0.152 nM; at ErbB2 (D769Y), 0.244 nM; at ErbB2 (R896C), 0.379 nM; on ErbB2 (V777L) it was below 0.152 nM.

For the molecule `Cc1cc(Nc2ncnc3ccc(NC(=O)/C=C/[C@H]4CCCN4C)cc23)ccc1Oc1ccn2cnnc2c1`, the IC50 stood at 0.253 nM at ErbB2 (D769H), 1.98 nM on ErbB2 (D769Y), 0.191 nM at ErbB2 (R896C) and 0.625 nM on ErbB2 (V777L).

For `Cc1cc(Nc2ncnc3ccc(NC(=O)/C=C/[C@H]4CCCN4C)cc23)ccc1Oc1cnc2ccnn2c1`, the IC50 is below 0.152 nM on ErbB2 (D769H), 0.6 nM at ErbB2 (D769Y), 0.336 nM on ErbB2 (R896C) and 0.279 nM at ErbB2 (V777L).

Take `Cc1cc(Nc2ncnc3ccc(NC(=O)/C=C/[C@H]4CCCN4)cc23)ccc1Oc1ccn2ncnc2c1`: the IC50 on ErbB2 (D769H) came out at 0.325 nM; at ErbB2 (D769Y), 0.246 nM; on ErbB2 (R896C), 0.997 nM; at ErbB2 (V777L), 0.186 nM.

In the case of `Cc1cc(Nc2ncnc3ccc(NC(=O)/C=C/[C@H]4CCCN4C)cc23)ccc1Oc1cc2nccn2cn1`, the IC50 on ErbB2 (D769H) was 0.283 nM; at ErbB2 (D769Y), 0.216 nM; at ErbB2 (R896C), 0.741 nM; at ErbB2 (V777L), 0.224 nM.

Regarding `Cc1cc(Nc2ncnc3ccc(NC(=O)/C=C/[C@H]4CCCN4)cc23)ccc1Oc1cc2nncn2cn1`, the IC50 turned out to be 0.422 nM on ErbB2 (D769H), 0.247 nM at ErbB2 (D769Y), 1.13 nM on ErbB2 (R896C) and 0.357 nM on ErbB2 (V777L).

As for `Cc1cc(Nc2ncnc3ccc(NC(=O)/C=C/[C@@H]4CCCN4C)cc23)ccc1Oc1cc2nncn2cn1`, the IC50 came out at 0.549 nM at ErbB2 (D769H), 1.45 nM on ErbB2 (D769Y), 0.788 nM on ErbB2 (R896C) and 0.163 nM on ErbB2 (V777L).

As for `CN1CCC[C@@H]1/C=C/C(=O)Nc1ccc2ncnc(Nc3ccc(Oc4cc5nncn5cn4)c(Cl)c3)c2c1`, the IC50 at ErbB2 (D769H) is below 0.152 nM; on ErbB2 (D769Y), below 0.152 nM; on ErbB2 (R896C) it was 0.187 nM; at ErbB2 (V777L), below 0.152 nM.

Regarding `COCCOc1cc2ncnc(Nc3ccc(Oc4cc5nncn5cn4)c(C)c3)c2cc1NC(=O)/C=C/[C@H]1CCCN1C`, the IC50 at ErbB2 (D769H) is 0.241 nM; at ErbB2 (D769Y) it was below 0.152 nM; at ErbB2 (R896C) it was 0.599 nM; on ErbB2 (V777L), below 0.152 nM.

As to `Cc1cc(Nc2ncnc3ccc(NC(=O)/C=C/C4COCCN4)cc23)ccc1Oc1cc2nncn2cn1` (stereo not shown), the IC50 on ErbB2 (D769H) worked out at 0.72 nM; at ErbB2 (D769Y) it was 0.892 nM; at ErbB2 (R896C) it was 0.973 nM; at ErbB2 (V777L), 0.438 nM.

As for `Cc1cc(Nc2ncnc3ccc(NC(=O)/C(F)=C/[C@H]4CCCN4C)cc23)ccc1Oc1cc2nncn2cn1`, the IC50 on ErbB2 (D769H) was 1.69 nM; on ErbB2 (D769Y), 0.811 nM; at ErbB2 (R896C), 4.84 nM; on ErbB2 (V777L), 2.41 nM.

Turning to `CCOc1cc2ncc(C#N)c(Nc3ccc(Oc4cc5nncn5cn4)c(C)c3)c2cc1NC(=O)/C=C/[C@H]1CCCN1C`, the IC50 at ErbB2 (D769H) was 1.34 nM; on ErbB2 (D769Y), 2.06 nM; on ErbB2 (R896C) it was 1.94 nM; on ErbB2 (V777L) it was 0.889 nM.

For the molecule `CCOc1cc2ncnc(Nc3ccc(Oc4cc5nncn5cn4)c(C)c3)c2cc1NC(=O)/C=C/[C@H]1CCCN1C`, the IC50 at ErbB2 (D769H) amounted to 0.563 nM; on ErbB2 (D769Y) it was 0.413 nM; on ErbB2 (R896C), 1.87 nM; at ErbB2 (V777L), 0.471 nM.

`CCOc1cc2ncnc(Nc3ccc(Oc4ccn5ncnc5c4)c(C)c3)c2cc1NC(=O)/C=C/[C@H]1CCCN1C`: the 50% inhibitory concentration (IC50) on ErbB2 (D769H), at ErbB2 (D769Y), on ErbB2 (R896C) and at ErbB2 (V777L) was below 0.152 nM in each case.

For `CCOc1cc2ncnc(Nc3ccc(Oc4ccn5ncnc5c4)c(C)c3)c2cc1NC(=O)/C(F)=C/[C@@H]1CCCN1C`, the half-inhibitory concentration (IC50) came to 0.998 nM on ErbB2 (D769H), 2.44 nM at ErbB2 (D769Y), 0.978 nM on ErbB2 (R896C) and 0.235 nM on ErbB2 (V777L).

With `CS(=O)(=O)CCNCc1ccc(-c2ccc3ncnc(Nc4ccc(OCc5cccc(F)c5)c(Cl)c4)c3c2)o1` [Lapatinib, reference compound], the IC50 in assay [1] was determined as 106 nM. Also, the “Efficacy (in words)” value in assay [2] was “moderate efficacy”.

Regarding `CCOc1cc2ncc(C#N)c(Nc3ccc(OCc4ccccn4)c(Cl)c3)c2cc1NC(=O)/C=C/CN(C)C` [Neratinib, reference compound], the Tumor volume in assay [2] (Day 0, mean ± standard error) came out at 130.9 ± 4.75 mm^3; in assay [2] (Day 4, mean ± standard error), 115.3 ± 9.81 mm^3; in assay [2] (Day 7, mean ± standard error), 182 ± 10.87 mm^3; in assay [2] (Day 11, mean ± standard error), 325.6 ± 9.86 mm^3; in assay [2] (Day 13, mean ± standard error), 532.8 ± 15.26 mm^3. For the same molecule, the “TGI (%)” value in assay [2] is on record as 56%.

Regarding `CCOc1cc2ncc(C#N)c(Nc3ccc(OCc4ccccn4)c(Cl)c3)c2cc1NC(=O)/C=C/[C@H]1CCCN1C` [Pyrotinib, reference compound], the IC50 is 15.6 nM at ErbB2 (D769H); 91.7 nM at ErbB2 (D769Y); 5.24 nM on ErbB2 (R896C); 10.5 nM on ErbB2 (V777L); 73.2 nM in assay [3]. The Tumor volume in assay [2] (Day 0, mean ± standard error) was found to be 130.4 ± 5.4 mm^3; in assay [2] (Day 4, mean ± standard error) it was 154.6 ± 4.87 mm^3; in assay [2] (Day 7, mean ± standard error) it was 328.2 ± 13.39 mm^3; in assay [2] (Day 11, mean ± standard error), 405.4 ± 19.38 mm^3; in assay [2] (Day 13, mean ± standard error) it was 534.8 ± 38.29 mm^3. In addition, the “TGI (%)” value in assay [2] is 55%. Also, in assay [2], the “Efficacy (in words)” value is “moderate efficacy”.

Regarding `Cc1cc(Nc2ncnc3ccc(NC4=NC(C)(C)CO4)cc23)ccc1Oc1ccn2ncnc2c1` [Tucatinib, reference compound], the IC50 on ErbB2 (D769H) is 2.58 nM; at ErbB2 (D769Y), 8.89 nM; on ErbB2 (R896C) it was 2.17 nM; at ErbB2 (V777L), 1.08 nM.

(Values after patent US20240197737A1, “APPLICATION OF COMPOUND IN PREPARATION OF INHIBITORY DRUG TARGETING ERBB2 MUTANT” (SHANGHAI PHARMACEUTICALS HOLDING CO., LTD., priority 2021, published 2024).)
